Patent US20030134842A1, “METHODS FOR THE TREATMENT OR PREVENTION OF INFLAMMATORY DISEASES CHARACTERIZED BY ABNORMAL CELL PROLIFERATION” (priority 1997, published 2003)
Like-named read-outs stand apart in the source and are kept apart here. Blank lines part the entries; values can stand above or below the compound they belong to.

How the values were obtained:
[1] = tested on: NIH 3T3 mouse fibroblast cells; test: Mitogenic assay (mitogen-induced cell proliferation); assay type: cell-based; details: Mus musculus, NIH3T3, NIH 3T3 mouse fibroblast cells, mitogen-induced cell proliferation
[2] = molecular target: T1, Ca2+-activated potassium channel (Gardos channel) of erythrocytes (Homo sapiens, UniProt O15554); test: Gardos channel assay; assay type: cell-based; details: for inhibition at 10 µM: 10 μM compound
T1 construct: endogenous in cells; host or cells: erythrocytes

A549 = test: SRB antiproliferative assay A549; assay type: cell-based; details: Homo sapiens
Text: (§1) The cells were passaged using Trypsin (Gibco).

MMRU = test: SRB antiproliferative assay MMRU; assay type: cell-based; details: Homo sapiens
Text: as §1

HT29 = test: SRB antiproliferative assay HT29; assay type: cell-based; details: Homo sapiens
Text: as §1

HeLa = test: SRB antiproliferative assay HeLa; assay type: cell-based; details: Homo sapiens; HeLa (Cervical), 5% FCS/5 day incubation; read-out: Test Compound IC50
Text: as §1

CaSki = test: SRB antiproliferative assay CaSki; assay type: cell-based; details: Homo sapiens, Ca-Ski; CaSki (Cervical), 5% FCS/5 day incubation; read-out: Test Compound IC50
Text: as §1

MDA-MB-23 = test: SRB antiproliferative assay MDA-MB-23; assay type: cell-based; details: MDA-MB-23 (Breast), 5% FCS/5 day incubation; read-out: Test Compound IC50
Text: as §1

MCF7 = test: SRB antiproliferative assay MCF7; assay type: cell-based; details: Homo sapiens
Text: as §1

HTB174 = test: SRB antiproliferative assay HTB174; assay type: cell-based; details: HTB174 (Lung), 5% FCS/5 day incubation; read-out: Test Compound IC50
Text: as §1

HEPG2 = test: SRB antiproliferative assay HEPG2; assay type: cell-based; details: Homo sapiens
Text: as §1

DU-145 = test: SRB antiproliferative assay DU-145; assay type: cell-based; details: Homo sapiens; DU-145 (Prostate), 5% FCS/5 day incubation; read-out: Test Compound IC50
Text: as §1

SK-MEL-28 = test: SRB antiproliferative assay SK-MEL-28; assay type: cell-based; details: Homo sapiens; SK-MEL-28 (Melanoma), 5% FCS/5 day incubation; read-out: Test Compound IC50
Text: as §1

HCT-15 = test: SRB antiproliferative assay HCT-15; assay type: cell-based; details: Homo sapiens; HCT-15 (Colon), 5% FCS/5 day incubation; read-out: Test Compound IC50
Text: as §1

ACHN = test: SRB antiproliferative assay ACHN; assay type: cell-based; details: Homo sapiens; ACHN (Renal), 5% FCS/5 day incubation; read-out: Test Compound IC50
Text: as §1

U118MG = test: SRB antiproliferative assay U118MG; assay type: cell-based; details: Homo sapiens, U-118-MG
Text: as §1

SK-OV-3 = test: SRB antiproliferative assay SK-OV-3; assay type: cell-based; details: Homo sapiens; SK-OV-3 (Ovary), 5% FCS/5 day incubation; read-out: Test Compound IC50
Text: as §1

HUVEC = test: SRB assay normal cells HUVEC; assay type: cell-based; details: HUVEC (Normal human), 5% FCS/5 day incubation; read-out: Test Compound IC50
Text: as §1

GM = test: SRB assay normal cells GM; assay type: cell-based; details: GM (Normal human), 5% FCS/5 day incubation; read-out: Test Compound IC50
Text: as §1

3T3 = test: SRB assay normal cells 3T3; assay type: cell-based; details: NIH3T3; 3T3 (Normal mouse), 5% FCS/5 day incubation; read-out: Test Compound IC50
Text: as §1

L929 = test: SRB assay normal cells L929; assay type: cell-based; details: L929 (Normal mouse), 5% FCS/5 day incubation; read-out: Test Compound IC50
Text: as §1

T1 sequence (O15554 whole entry): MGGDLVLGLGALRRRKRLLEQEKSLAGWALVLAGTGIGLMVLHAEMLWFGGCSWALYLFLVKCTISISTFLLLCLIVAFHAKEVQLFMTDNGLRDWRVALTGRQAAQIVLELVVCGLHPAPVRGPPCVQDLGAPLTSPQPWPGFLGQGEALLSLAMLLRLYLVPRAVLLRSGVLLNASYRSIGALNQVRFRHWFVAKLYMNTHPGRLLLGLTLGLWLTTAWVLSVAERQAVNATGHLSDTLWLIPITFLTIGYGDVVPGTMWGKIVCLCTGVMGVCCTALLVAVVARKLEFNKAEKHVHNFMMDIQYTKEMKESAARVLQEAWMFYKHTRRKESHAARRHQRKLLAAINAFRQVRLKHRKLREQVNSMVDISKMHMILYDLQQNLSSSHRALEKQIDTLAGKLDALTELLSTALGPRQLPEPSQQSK

IC50 [2]: 85 to 93 nM
inhibition at 10 µM [2]: 97.3%
melting point: 159 to 161 °C
SMILES: COC(=O)N1Cc2ccccc2C(c2ccccc2Cl)c2ccccc21 (stereo not shown) [Compound 9, N-methoxycarbonyl-11-(2′-chlorophenyl)-5,6-dihydro-11H-dibenz[b,e]azepine]
IC50 [1]: 2100 nM

IC50 [2]: > 10000 nM
inhibition at 10 µM [2]: 14.8%
IC50 (A549; A549, A549, 5% FCS/2 days, read-out: Test Compound IC50 Value in Cell Lines): > 10000 nM
IC50 (HT29; HT-29, HT29, 5% FCS/2 days, read-out: Test Compound IC50 Value in Cell Lines): 10000 nM
melting point: 155 to 165 °C
SMILES: O=C(Oc1ccccc1)N1Cc2ccccc2C(c2ccccc2)c2ccccc21 (stereo not shown) [Compound 14, N-phenoxycarbonyl-11-phenyl-5,6-dihydro-11H-dibenz[b,e]azepine]
IC50 [1]: 40 nM
IC50 (MMRU; MMRU, 5% FCS/2 days, read-out: Test Compound IC50 Value in Cell Lines): > 10000 nM

IC50 [2]: > 10000 nM
inhibition at 10 µM [2]: 13.6%
IC50 (HeLa): 600 nM
IC50 (MDA-MB-23): > 1000 nM
IC50 (MCF7; MCF7 (Breast), 5% FCS/5 day incubation, read-out: Test Compound IC50): > 1000 nM
IC50 (A549; A549, A549 (Lung), 5% FCS/5 day incubation, read-out: Test Compound IC50): > 1000 nM
IC50 (HEPG2; HEPG2 (Hepatocel), 5% FCS/5 day incubation, read-out: Test Compound IC50): 900 nM
IC50 (DU-145): > 1000 nM
IC50 (SK-MEL-28): 900 nM
IC50 (HT29; HT-29, HT29 (Colon), 5% FCS/5 day incubation, read-out: Test Compound IC50): 700 nM
IC50 (HCT-15): 900 nM
IC50 (ACHN): > 1000 nM
IC50 (SK-OV-3): > 1000 nM
SMILES: O=C(c1ccc([N+](=O)[O-])cc1)N1Cc2ccccc2C(c2ccccc2)c2ccccc21 (stereo not shown) [Compound 20]
IC50 [1]: 1700 nM
IC50 (CaSki): 900 nM
IC50 (HTB174): 700 nM
IC50 (MMRU; MMRU (Melanoma), 5% FCS/5 day incubation, read-out: Test Compound IC50): 500 nM
IC50 (U118MG; U118MG (CNS), 5% FCS/5 day incubation, read-out: Test Compound IC50): 900 nM
IC50 (HUVEC): > 1000 nM
IC50 (GM): > 1000 nM
IC50 (3T3): > 1000 nM
IC50 (L929): 900 nM

IC50 [2]: > 10000 nM
inhibition at 10 µM [2]: 0.8%
IC50 (MCF7; MCF7, 5% FCS/3 days, read-out: Test Compound IC50 Value in Cell Lines): 5900 nM
IC50 (A549; A549, A549, 5% FCS/3 days, read-out: Test Compound IC50 Value in Cell Lines): 7000 nM
IC50 (HEPG2; HEPG2, 5% FCS/3 days, read-out: Test Compound IC50 Value in Cell Lines): 5400 nM
IC50 (HT29; HT-29, HT29, 5% FCS/3 days, read-out: Test Compound IC50 Value in Cell Lines): 7200 nM
melting point: 95 to 99 °C
SMILES: O=C(Oc1ccccc1)N1Cc2ccccc2C(c2ccccc2Cl)c2ccccc21 (stereo not shown) [Compound 26, N-phenoxycarbonyl-11-(2′-chlorophenyl)-5,6-dihydro-11H-dibenz[b,e]azepine]
IC50 [1]: 40 to 900 nM
IC50 (MMRU; MMRU, 5% FCS/3 days, read-out: Test Compound IC50 Value in Cell Lines): 4900 nM
IC50 (U118MG; U118MG, 5% FCS/3 days, read-out: Test Compound IC50 Value in Cell Lines): 5700 nM
